Earlier results, collected in patent US20060264384A1, “Compositions and methods for treatment for neoplasms” (priority 2005, published 2006).

solubility in water | Compound | solubility in organic solvents
barely soluble in water | CCN(CC)C(=S)SSC(=S)N(CC)CC [Disulfiram] | soluble in solvents such as alcohol, ether, acetone, and benzene
slightly soluble | CCc1c2c(nc3ccc(OC(=O)N4CCC(N5CCCCC5)CC4)cc13)-c1cc3c(c(=O)n1C2)COC(=O)[C@]3(O)CC [Irinotecan] | slightly soluble
up to 1 mg/ml | CC[C@@]1(O)C(=O)OCc2c1cc1n(c2=O)Cc2cc3c(CN(C)C)c(O)ccc3nc2-1 [Topotecan] | –
